Laboratory results published in patent US8952054B2, “Small molecule inhibitors of MUC1 and methods of identifying the same” (Dana-Farber Cancer Institute, Inc., priority 2010, dated 2015).
“Also recorded” adds a separate entry of the source.

Key:
[1] = molecular target: T1, His-MUC1-CD (Homo sapiens, UniProt P15941); assay: In-gel in vitro MUC1-CD dimerization/oligomerization assay (non-reducing SDS-PAGE, anti-MUC1-C immunoblot); assay type: biochemical; conditions: 1 h at room temperature; for formation of MUC1-CD dimers, soluble protein: 1 mM compound
T1 construct: made in house
T1 sequence (P15941 1184-1255): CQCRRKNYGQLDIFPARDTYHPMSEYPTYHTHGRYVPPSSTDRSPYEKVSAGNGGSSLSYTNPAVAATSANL
Experimental: (§1) FIGS. 1A-D. MUC1/CQC peptide blocks MUC1 oligomerization. (FIG. 1A) Schematic representation of the MUC1-C subunit and the 72-amino acid sequence of MUC1-CD (SEQ ID NO: 1) are shown. The N-terminal 15 amino acids (shaded sequence) MUC1/CQC (SEQ ID NO: 10) and mutated MUC1/AQA (SEQ ID NO: 11) peptides were synthesized with the poly-dArg transduction domain. (FIG. 1B) His-MUC1-CD (1.4 mg/ml) was immobilized on a sensor chip in a BIAcore. MUC1/CQC was injected over the chip at 10 μM. Raw binding data were analyzed by BIAevaluation software version 3.0 and fit to a 1:1 Languir binding model. (FIG. 1C) Purified His-MUC1-CD (1.5 mg/ml) was incubated with PBS, 200 μM MUC1/CQC or 200 μM MUC1/AQA for 1 h at room temperature. The proteins were separated in a non-reducing SDS-polyacrylamide gel and analyzed by immunoblotting with anti-MUC1-C. (FIG. 1D) 293 cells were transiently transfected to express an empty vector or GFP-MUC1-CD and Flag-MUC1-CD. At 48 h after transfection, the cells were treated with 5 μM MUC1/CQC or MUC1/AQA for 3 d. The cells were then harvested for immunoblotting with anti-MUC1-C (left panel). Whole cell lysates were also precipitated with anti-Flag and the precipitates were immunoblotted with the indicated antibodies (right panels).
FIG. 7—GO-201 blocks MUC1 oligomerization. Purified His-MUC1-CD was incubated with PBS (control), GO-201, or CP-1 for 1 hr at room temperature. The proteins were separated in a non-reducing SDS-polyacrylamide gel (SDS-PAGE) and analyzed by immunoblotting with anti-MUC1-C antibodies. The formation of dimers and tetramers was inhibited by incubation with GO-201.
FIGS. 12A-D—Apigenin is an inhibitor of MUC1-CD dimerization in vitro and in cells. (FIG. 12A) Structures of apigenin and its analogue baicalein. Using the in vitro screening assay, dimerization of MUC1-CD was assessed in the presence of 100 μM apigenin or 100 μM baicalein each dissolved in 0.1% DMSO. The results (mean±SD of 3 determinations) are expressed as percentage of control dimerization in the presence of DMSO alone. (FIG. 12B) MUC1-CD dimerization was assessed in the presence of the indicated concentrations of apigenin in the in vitro screening assay. […] (FIG. 12C) Soluble MUC1-CD was incubated in the presence of 1% DMSO, 1 mM apigenin or 1 mM baicalein for 1 h at room temperature. Monomers and dimmers were assessed by electrophoresis in a non-reducing gel and immunoblotting with anti-MUC1-C. (FIG. 12D) 293 cells were transiently transfected to express an empty vector or GFP-MUC1-CD and Flag-MUC1-CD. […]
(§2) Purified His-tagged MUC1-CD protein also forms dimers and oligomers when incubated in a buffer in vitro, and these can be detected by electrophoresis in polyacrylamide gels. […] Following extensive washings, the proteins are separated in a non-reducing SDS-polyacrylamide gel and analyzed by immunoblotting with anti-MUC1-CD antibody.
As a positive control for validation of this assay for secondary screening, purified His-MUC1-CD is incubated with either PBS or with GO-201 (CQC peptide) for 1 hr at room temperature. The proteins are separated in a non-reducing SDS-polyacrylamide gel and analyzed by immunoblotting with anti-MUC1-CD antibody.
as §2, with “protein” for “protein also”, “as” for “and these can be”, “antibody. […]” for “antibody.”

[2] = molecular target: T2, GFP-MUC1-CD and Flag-MUC1-CD (Homo sapiens, UniProt P15941); assay: Inhibition of dimerization of MUC1-CD in cyto (coprecipitation in transfected 293 cells); assay type: cell-based; conditions: for formation of MUC1-CD dimers (anti-Flag precipitates, anti-GFP blot): 75 μM for 3 days
T2 construct: expressed in transfected cells; host or cells: HEK 293 cells (no endogenous MUC1)
T2 sequence (P15941 1184-1255 limits assumed): T1 sequence (P15941 1184-1255)
Experimental: as §1
FIG. 8—293 cells transiently transfected to express an empty vector or GFP-MUC1-CD and Flag-MUC1-CD. At 48 he after transfection, cells were left untreated (control), or treated with 5 μmol/L GO-201 or CP-1 each day for 3 days. The cells were then harvested for immunoblotting with anti-MUC1-C (left). Whole-cell lysates were also precipitated with anti-Flag and the precipitates were immunoblotted with the indicated antibodies (right).
FIGS. 12A-D—Apigenin is an inhibitor of MUC1-CD dimerization in vitro and in cells. (FIG. 12A) Structures of apigenin and its analogue baicalein. Using the in vitro screening assay, dimerization of MUC1-CD was assessed in the presence of 100 μM apigenin or 100 μM baicalein each dissolved in 0.1% DMSO. The results (mean±SD of 3 determinations) are expressed as percentage of control dimerization in the presence of DMSO alone. (FIG. 12B) MUC1-CD dimerization was assessed in the presence of the indicated concentrations of apigenin in the in vitro screening assay. […] (FIG. 12C) Soluble MUC1-CD was incubated in the presence of 1% DMSO, 1 mM apigenin or 1 mM baicalein for 1 h at room temperature. Monomers and dimmers were assessed by electrophoresis in a non-reducing gel and immunoblotting with anti-MUC1-C. (FIG. 12D) 293 cells were transiently transfected to express an empty vector or GFP-MUC1-CD and Flag-MUC1-CD. At six hours after transfection, the cells were left untreated, and treated with 75 μM apigenin or baicalein for 3 days. Whole-cell lysates were precipitated with anti-Flag, and the precipitates were immunoblotted with the indicated antibodies.
Two different versions of MUC1-CD vectors have been generated for transformation of cells: GFP-MUC1-CD and Flag-MUC1-CD. […] At 48 hr post-transfection, cells are incubated with the selected compounds from the primary and/or secondary screening assays. Cells are then harvested and used for immunoblotting with anti-MUC1-C. Total cell lysates are subjected to immunoprecipitation with anti-GFP antibody and the adsorbates are analyzed by immunoblotting with anti-Flag antibody.
293 cells were transfected with vectors expressing GFP, GFP-MUC1-CD or Flag-MUC1-CD in the presence of Lipofectamine as described (Leng et al., 2007).
The inventors generated two different versions of MUC1-CD vectors for transfecting into cells: GFP-MUC1-CD and Flag-MUC1-CD. […] At 48 hours post-transfection, cells are incubated with selected compounds. The cells were harvested for immunoblotting with anti-MUC1-C. Total cell lysates are subjected to immunoprecipitation with anti-GFP antibody and the adsorbates are analyzed by immunoblotting with anti-Flag antibody. An inhibitor of MUC1-CD dimerization will inhibit dimerization of MUC1-CD in cyto. […]

[3] = transfected 293 cells, 5 μM peptide for 3 d

interaction between Flag-MUC1-CD and GFP-MUC1-CD [2, 3] | interaction between Flag-MUC1-CD and GFP-MUC1-CD ([2]; transfected HEK 293 cells, 5 μM GO-201 or CP-1 each day for 3 days) | interaction between Flag-MUC1-CD and GFP-MUC1-CD ([2]; transfected HEK 293 cells, 5 mM GO-201 as printed) | formation of MUC1-CD dimers, soluble protein [1] | formation of MUC1-CD dimers (anti-Flag precipitates, anti-GFP blot) ([2]; transfected 293 cells) | Molecule | His-MUC1-CD oligomer formation ([1]; 200 μM peptide) | His-MUC1-CD oligomer formation ([1]; GO-201 positive control)
no apparent effect | – | – | – | – | MUC1/AQA: control peptide in which the CQC motif was altered to AQA (SEQ ID NO: 11) (AQARRKNYGQLDIFP) [reference compound] | little if any effect | –
disruption of the interaction | disruption of the interaction | disruption of the interaction | – | – | CC[C@H](C)[C@H](NC(=O)[C@H](CC(=O)O)NC(=O)[C@H](CC(C)C)NC(=O)[C@H](CCC(N)=O)NC(=O)CNC(=O)[C@H](Cc1ccc(O)cc1)NC(=O)[C@H](CC(N)=O)NC(=O)[C@H](CCCCN)NC(=O)[C@H](CCCNC(=N)N)NC(=O)[C@H](CCCNC(=N)N)NC(=O)[C@H](CS)NC(=O)[C@H](CCC(N)=O)NC(=O)[C@H](CS)NC(=O)[C@@H](CCCNC(=N)N)NC(=O)[C@@H](CCCNC(=N)N)NC(=O)[C@@H](CCCNC(=N)N)NC(=O)[C@@H](CCCNC(=N)N)NC(=O)[C@@H](CCCNC(=N)N)NC(=O)[C@@H](CCCNC(=N)N)NC(=O)[C@@H](CCCNC(=N)N)NC(=O)[C@@H](CCCNC(=N)N)NC(=O)[C@H](N)CCCNC(=N)N)C(=O)N[C@@H](Cc1ccccc1)C(=O)N1CCC[C@H]1C(=O)O [MUC1/CQC] | substantially decreased oligomer formation | substantially decreases oligomer formation; also recorded: inhibited
– | – | – | completely blocked | completely blocked | O=c1cc(-c2ccc(O)cc2)oc2cc(O)cc(O)c12 [Apigenin, 4′,5,7-trihydroxyflavone] | – | –
– | – | – | little effect | not | O=c1cc(-c2ccccc2)oc2cc(O)c(O)c(O)c12 [Baicalein, 5,6,7-trihydroxyflavone, reference compound] | – | –
